Reference: ChEMBL document CHEMBL4665777, “Bioactive Alkaloids from the Actinomycete Actinoalloteichus sp. ZZ1866” (J Nat Prod, 2020)
Calls of active or inactive are those of the source. The rule behind the calls is not given here.

Legend:
[1] = tested on: Staphylococcus aureus; assay: Antimicrobial activity against methicillin-resistant Staphylococcus aureus at 50 ug/ml after 12 hrs by microbroth dilution method; assay type: functional, organism-based
[2] = tested on: U-251; assay: Antiproliferative activities against human U-251 cells by SRB assay; assay type: functional, cell-based
[3] = tested on: Escherichia coli; assay: Antimicrobial activity against Escherichia coli at 50 ug/ml after 12 hrs by microbroth dilution method; assay type: functional, organism-based
[4] = tested on: U-87 MG; assay: Antiproliferative activities against human U-87 MG cells by SRB assay; assay type: functional, cell-based, U-87MG ATCC
[5] = tested on: Candida albicans; assay: Antimicrobial activity against Candida albicans at 50 ug/ml after 12 hrs by microbroth dilution method; assay type: functional, organism-based
[6] = tested on: U-251; assay: Antiproliferative activities against human U-251 cells at 50 uM by SRB assay; assay type: functional, cell-based
[7] = tested on: U-87 MG; assay: Antiproliferative activities against human U-87 MG cells at 50 uM by SRB assay; assay type: functional, cell-based; conditions: u-87mg atcc

Structure (SMILES) | Activity [1] | IC50 [2] [µM] | Activity [3] | IC50 [4] [µM] | Activity [5] | IC50 [6] | IC50 [7]
Cn1c2ccccc2c2cc(C(=O)NCCc3ccccc3)[nH]c(=O)c21 | inactive | 13 | inactive | 11 | inactive | – | –
CO[C@@]1(C)N(/C=C\c2ccccc2)C(=O)c2cc3c4ccccc4n(C)c3c(=O)n21 | inactive | 12 | inactive | 2.3 | inactive | – | –
COc1cccc2c1C(=O)c1c(O)c3c(c(O)c1C2=O)C[C@@](O)(C(=O)CO)C[C@@H]3O[C@H]1C[C@H](N)[C@H](O)[C@H](C)O1 [DOXORUBICIN] | – | 3.9 | – | 0.6 | – | – | –
CC(=O)c1nc(C(=O)NCCc2ccccc2)cc2c1[nH]c1ccccc12 | inactive | 12 | inactive | 13 | inactive | – | –
O=C(NCCc1ccccc1)c1cc2c([nH]c3ccccc32)c(=O)[nH]1 | inactive | – | inactive | – | inactive | Not Active | Not Active
COc1cc(/C=N/OCCc2ccccc2)nc(-c2ccccn2)c1 | inactive | 2 | inactive | 6.5 | inactive | – | –
CC(=O)c1nc(C(=O)NC[C@H](O)c2ccccc2)cc2c3ccccc3n(C)c12 | inactive | – | inactive | – | inactive | Not Active | Not Active
CO[C@@]1(C)N(C[C@@H](O)c2ccccc2)C(=O)c2cc3c4ccccc4n(C)c3c(=O)n21 | inactive | 36 | inactive | 29 | inactive | – | –
Cn1c2ccccc2c2cc3n(c(=O)c21)[C@@](C)(O)N(CCc1ccccc1)C3=O | inactive | – | inactive | – | inactive | Not Active | Not Active
CO[C@@]1(C)N(C[C@H](O)c2ccccc2)C(=O)c2cc3c4ccccc4n(C)c3c(=O)n21 | inactive | 19 | inactive | 17 | inactive | – | –
CO[C@@]1(C)N(/C=C\c2ccccc2)C(=O)c2cc3c([nH]c4ccccc43)c(=O)n21 | inactive | – | inactive | – | inactive | Not Active | Not Active
CO[C@@]1(C)N(/C=C/c2ccccc2)C(=O)c2cc3c([nH]c4ccccc43)c(=O)n21 | inactive | 36 | inactive | 43 | inactive | – | –
CC(=O)c1nc(C(=O)NCCc2ccccc2)cc2c3ccccc3n(C)c12 | inactive | 12 | inactive | 7.4 | inactive | – | –
CCCCCc1[nH]c(=O)c2cnccc2c1C | inactive | – | inactive | – | inactive | Not Active | Not Active
CC(=O)NC[C@H](OC(=O)c1cc2c3ccccc3n(C)c2c(=O)[nH]1)c1ccccc1 | inactive | 15 | inactive | 19 | inactive | – | –
CO[C@@]1(C)N(CCc2ccccc2)C(=O)c2cc3c4ccccc4n(C)c3c(=O)n21 | inactive | 27 | inactive | 8.9 | inactive | – | –
CO[C@@]1(C)N(/C=C/c2ccccc2)C(=O)c2cc3c4ccccc4n(C)c3c(=O)n21 | inactive | 17 | inactive | 4.5 | inactive | – | –
CO[C@@]1(C)N(/C=C/c2ccccc2)C(=O)C2=C[C@@]3(C(=O)N(C)c4ccccc43)C(=O)N21 | inactive | 5.8 | inactive | 7.2 | inactive | – | –
